Assay results as given in publication PMC6383678 (Biochimica et biophysica acta. Biomembranes, 2019).

Target: A2aR (hA2aR) (Homo sapiens, UniProt P29274)
Test: flow cytometry, fluorescent agonist equilibrium binding to HEK293-A2aR cells
Format: cell-based

Chain of A2aR (hA2aR) (P29274 whole entry): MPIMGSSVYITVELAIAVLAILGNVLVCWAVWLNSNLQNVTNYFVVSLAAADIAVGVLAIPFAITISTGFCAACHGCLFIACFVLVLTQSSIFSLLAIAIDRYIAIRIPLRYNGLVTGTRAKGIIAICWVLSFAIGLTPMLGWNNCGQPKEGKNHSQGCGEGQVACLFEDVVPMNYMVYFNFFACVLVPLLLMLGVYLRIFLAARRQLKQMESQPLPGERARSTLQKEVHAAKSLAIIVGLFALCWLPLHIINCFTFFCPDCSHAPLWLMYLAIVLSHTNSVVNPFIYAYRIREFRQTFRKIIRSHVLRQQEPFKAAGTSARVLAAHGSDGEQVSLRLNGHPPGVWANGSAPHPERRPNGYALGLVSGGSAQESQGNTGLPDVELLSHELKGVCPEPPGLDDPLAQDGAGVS

## CCNC(=O)[C@H]1O[C@@H](n2cnc3c(N)nc(NCCc4ccc(CCC(=O)NCCNC(=S)Nc5ccc6c(c5)C(=O)OC65c6ccc(O)cc6Oc6cc(O)ccc65)cc4)nc32)[C@H](O)[C@@H]1O [FITC-APEC]
  equilibrium ligand binding: equilibrium ligand binding of the fluorescent agonist APEC-FITC was unchanged following cholesterol depletion
